This is an account of results in ChEMBL document CHEMBL1157539, “Thousands of chemical starting points for antimalarial lead identification” (Nature, 2010).

The subject of this assay is Plasmodium falciparum. Put plainly: GSK_TCMDC: Inhibition of Plasmodium falciparum 3D7 in whole erythrocytes, using parasite LDH activity as an index of growth. The format is functional, organism-based. The conditions noted are these: Plasmodium falciparum, 3D7.
For `CCCCc1ccc(C(=O)Nc2ccc3nc(N4CCN(CC)CC4)cc(C)c3c2)cc1`, the XC50 worked out at 0.905 µM.

Regarding `CCN(CC)CCN(Cc1ccc(-c2ccc(C(F)(F)F)cc2)cc1)C(=O)Cn1c(CCC2CCCCC2)nc(=O)c2ccccc21`, the XC50 was determined as 1.39 µM. Regarding `CCN1CCC(N(Cc2ccc(-c3ccc(C(F)(F)F)cc3)cc2)C(=O)Cn2c(CCc3cccc(F)c3F)nc(=O)c3ccccc32)CC1`, the XC50 amounted to 1.06 µM. As for `Cc1[nH]cc(Br)c(=O)c1-c1ccc(Oc2ccc(OC(F)(F)F)cc2)cc1`, the XC50 is 0.325 µM. In turn, `CC1CN(c2ccc(C(=O)NCC3CC3)cc2NC(=O)OCc2ccccc2)CC(C)O1` (stereo unspecified) had an XC50 of 1.3 µM. `COc1cc(Nc2ccc3cc(S(=O)(=O)N4CCCCC4C)ccc3n2)cc(OC)c1OC` (stereo unspecified) yielded an XC50 of 1.24 µM. Compound `COc1ccc(NC(=O)Nc2cccc(-c3cccc(-c4nc5cccc(C)c5[nH]4)c3)c2)cc1` displayed an XC50 of 0.4 µM. `COc1ccc(CCCON2C(=N)N=C(N)NC2(C)C)cc1` gave an XC50 of 0.0032 µM. Turning to `Cc1cc(NC2CCN(Cc3ccccc3)CC2)nc(NCCCCc2ccccc2)n1`, the XC50 is 0.383 µM. `CC(=O)N[C@H](C(=O)Nc1cccc(-c2ccc(-c3nc4cccc(C)c4[nH]3)s2)c1)C(C)C` yielded an XC50 of 0.76 µM. In turn, `O=C(Nc1cccc(CN2CCCN(Cc3ncc[nH]3)CC2)c1)c1ccc(-c2ccccc2)cc1` had an XC50 of 0.654 µM. As for `CC1CCCC(C)N1C[C@@H](O)CNS(=O)(=O)c1cccc(C(F)(F)F)c1` (stereo partly specified), the XC50 is 0.692 µM. The value for `Cc1ccc(Nc2ccnc3ccc(C(F)(F)F)cc23)cc1O` was 0.956 µM.

`CS(=O)(=O)c1cccc(-c2cnc(N)c3cc(-c4ccc5c(c4)OCO5)ccc23)c1` showed an XC50 of 1.04 µM.

`CCCOc1cc(OCCC)cc(-c2cc(=O)c3ccccc3[nH]2)c1` had an XC50 of 0.0581 µM.

The compound `CS(=O)(=O)CCNCc1nc(-c2ccc3c(=O)[nH]cnc3c2)cs1` gave an XC50 of 1.01 µM. `COc1ccc2cc(-c3nc(-c4c(Cl)cccc4Cl)[nH]c3-c3ccnc(NCCC4CCCN4C)c3)ccc2c1` (stereo unspecified) displayed an XC50 of 1.03 µM. Regarding `CC(C)(CNC(=O)/C=C/c1ccc(Cl)c(Cl)c1)CNc1cc(=O)c2ccccc2[nH]1`, the XC50 was 0.856 µM. In turn, `COc1ccc2nccc([C@@H](O)CN3C4CCC3CC(NCc3ccc5c(n3)NC(=O)CS5)C4)c2n1` (stereo partly specified) showed an XC50 of 0.934 µM.

For `O=C(NC1CC1)c1cnc(N2CCN(Cc3c(F)cccc3Cl)CC2)c(Cl)c1`, the XC50 turned out to be 0.905 µM. `CC(C)(C)c1ccc(CN2CCC(NC(=O)c3ccc(-c4cccc(C(F)(F)F)c4)s3)CC2)cc1` displayed an XC50 of 0.359 µM. In turn, `O=c1cc(NCCCNC(c2ccccc2)c2ccc(Cl)c(Cl)c2)[nH]c2ccccc12` (stereo unspecified) returned an XC50 of 1.14 µM. The value for `COc1ccc(CNCc2ccc(-c3ccc(-c4nc5cccc(C)c5[nH]4)s3)cc2)cc1` was 0.18 µM. `CCCCCCN1CCCN(Cc2ccc(C(=O)Nc3cccc(CC)c3)cc2)CC1` registered an XC50 of 0.67 µM.

`O=C(C=Cc1ccc(Cl)c(Cl)c1)NCCCCCN1CCCC(CCCNS(=O)(=O)c2cccc3cccnc23)C1` (stereo unspecified) returned an XC50 of 1 µM. For `O=C1COc2ccc(CNC3CCC(O)(CCc4ccnc5cc6c(cc45)OCCO6)CC3)nc2N1` (stereo unspecified), the XC50 amounted to 0.931 µM. Turning to `CC(C)NCC(=O)Nc1cccc(C(=O)Nc2cccc(C(F)(F)F)c2)c1`, the XC50 worked out at 0.273 µM. With `N#Cc1ccc2c(c1)CN(C1CCC(NC(=O)/C=C/c3cc(C(F)(F)F)cc(C(F)(F)F)c3)CC1)CCC2` (stereo unspecified), the XC50 was 1.39 µM. `CN1CCN(c2cc3c(cc2Cl)CCN3C(=O)Cc2ccc(NC(=O)Nc3cccc4ccccc34)cc2)CC1`: the XC50 came out at 0.973 µM.

`CC(CCCC(=O)Nc1ccc(CC(C)NCCc2cccc(Cl)c2)cc1)NCCc1cccc(Cl)c1` (stereo unspecified): the XC50 worked out at 0.625 µM. `CC1Cc2ccccc2N1S(=O)(=O)c1cc(OCC(F)(F)F)ccc1OCC(F)(F)F` (stereo unspecified) yielded an XC50 of 0.645 µM. `CC1(C)N=C(N)N=C(N)N1OCCCOc1cc(Cl)c(Cl)cc1Cl` displayed an XC50 of 0.0032 µM. `CCCCCCCNC(=O)NCC1CCCN(CCCCCNC(=O)/C=C/c2ccc(Cl)c(Cl)c2)C1` (stereo unspecified) returned an XC50 of 1.04 µM. `O=C(NCc1cccc(C(F)(F)F)c1)c1ccc(CNC(=O)c2ccc(O)c(-c3ccc(Cl)c(Cl)c3)c2)cc1`: the XC50 amounted to 0.843 µM. As to `CCn1c(Cc2ccccc2)nnc1SCC(=O)N1c2ccccc2Sc2ccccc21`, the XC50 amounted to 0.588 µM. In turn, `CCc1cn2c3c(cc(C(=O)N[C@@H](Cc4ccccc4)[C@H](O)CNC(C)(C)CCCC(C)C)cc13)N(C)S(=O)(=O)C2` returned an XC50 of 0.24 µM. Regarding `COc1cccc([C@@H](CC(=O)Nc2cc(C(F)(F)F)ccc2OC)Nc2ccc(C#N)c3ccccc23)c1`, the XC50 turned out to be 0.993 µM. `O=C(NC1CCCCC1)N(Cc1ccc(-c2cccc(CNCc3ccc4c(c3)OCO4)c2)cc1)C1CCN(Cc2ccccc2)CC1` returned an XC50 of 0.688 µM. On to `O=C(Nc1cc(Oc2ccc(O)cc2)cc([N+](=O)[O-])c1)c1cc(-c2ccc(F)cc2)no1`, for which the XC50 was 0.955 µM. The compound `CCCCCCCN1CC[C@@H](CCCc2ccnc3ccc(OCC4CCCNC4)cc23)[C@@H](CC)C1` (stereo partly specified) showed an XC50 of 0.625 µM.

Turning to `CC1(C)NC(N)=NC(=N)N1OCCCO`, the XC50 was 0.221 µM.

In turn, `COc1ccc(CNCc2ccccc2)cc1-c1ccc(S(=O)(=O)NCCN2CCCC2)c(C)c1` returned an XC50 of 0.856 µM. Compound `Nc1c2c(nc3ccc(Oc4ccc(Br)cc4Br)cc13)CCCC2` had an XC50 of 0.864 µM. Compound `CN(C)CCCNc1ncnc2c1[nH]c1ccc(F)cc12` yielded an XC50 of 0.732 µM. In turn, `Clc1ccc2c(NCCc3ccccc3)ccnc2c1` gave an XC50 of 0.488 µM.

Take `CC(C)c1ccc(NC(=O)NC2CCN(CCCCCN(C)C(=O)/C=C/c3ccc(Cl)c(Cl)c3)C2)cc1` (stereo unspecified): the XC50 was 0.83 µM. In turn, `Cc1cccc2nc(-c3ccc(-c4cccc(CNCc5ccccc5)c4)s3)[nH]c12` had an XC50 of 0.741 µM. `O=C(NCCN1CCCCC1)N1CCCN(c2ncnc3cc(-c4ccccc4)sc23)CC1` displayed an XC50 of 0.231 µM.

Compound `CC(C)N1CCN(C(CN2CCN(CCCOc3ccc(-c4ccccc4)cc3)CC2)c2ccc(F)cc2)CC1` (stereo unspecified) displayed an XC50 of 0.678 µM. `Cc1nc(N)nc(N)c1OCCCCOc1ccccc1` registered an XC50 of 0.0535 µM.

With `O=C(c1ccc(Cl)cc1)N1CCOC(CCN2CCC(c3ccccc3)CC2)(c2ccc(Cl)c(Cl)c2)C1` (stereo unspecified), the XC50 was found to be 0.238 µM. In turn, `Nc1cccc(CNCc2cccc(-c3ccc(-c4nc5cc(C(F)(F)F)ccc5[nH]4)cc3)c2)c1` showed an XC50 of 0.36 µM. On to `O=C(Nc1ccc(OC2CCN(Cc3ccsc3)C2)c(Cl)c1)c1ccc2ncccc2c1` (stereo unspecified), for which the XC50 stood at 0.966 µM. For `OC1=C2C(=Nc3ccccc3SC2c2cccs2)c2ccccc21` (stereo unspecified), the XC50 was determined as 0.229 µM. On to `COc1ccc(-c2nc3cccnc3n2CC(=O)Nc2cc(Cl)c(Cl)cc2Cl)c(OC)c1`, for which the XC50 is 0.722 µM. Compound `COc1cccc(CCc2c(CCNCCCCCCNCCc3ccccc3)ccc(OC)c2OC)c1` yielded an XC50 of 0.721 µM.

In turn, `COc1ccc(OC)c(C=CC(=O)NC2CCC(CN3CCC(c4c[nH]c5ccccc45)CC3)CC2)c1` (stereo unspecified) gave an XC50 of 0.653 µM. Compound `Cc1cc(C2CCN(CCCCNC(=O)c3ccc(-c4ccc(C(F)(F)F)cc4)cc3)CC2)c(C)cc1OCCO` showed an XC50 of 0.885 µM. `c1cc(CNCC2CCCO2)cc(-c2csc(-c3nc4ccccc4[nH]3)c2)c1` (stereo unspecified) displayed an XC50 of 1.04 µM. As to `COc1cc2c(cc1OC)CN(CCc1ccc(NC(=O)c3cc4cc(Cl)ccc4[nH]3)cc1)CC2`, the XC50 was determined as 1.02 µM.

With `CCC(CC)N1C(=O)C(c2ccccc2)(c2ccccc2)N=C1N`, the XC50 came out at 0.805 µM.
